We go through 9 molecules from ChEMBL document CHEMBL5223079, “Progress toward B-Cell Lymphoma 6 BTB Domain Inhibitors for the Treatment of Diffuse Large B-Cell Lymphoma and Beyond” (J Med Chem, 2021).

Structures are written as SMILES. In brackets after ≈: the same amount, converted by molar mass.

For orientation: IC50 means the midpoint of a concentration-inhibition curve. As usually defined, the microsomal CLint is a measure of how fast metabolising enzymes remove a compound, apart from limits set by blood flow. Broadly, the half-life is how long it takes for the measured level to halve. What is called Cmax is the peak of the concentration-time curve. As usually defined, the AUC is the area under the concentration-time curve, a measure of exposure. One may read the solubility as the concentration that dissolves in the medium under given conditions.

Data set [1] concerns OCI-Ly7. Briefly: cells. The note with it: Homo sapiens.
Description: Antiproliferative activity against BCL-6 dependent human OCILY7 cells by CCK-8 assay
Data set [2] deals with SUD4. The data set can be described thus: Decrease in number of living cells in human SUDHL4 cells at 0.625 uM incubated for 48 hrs by flow cytometry (reference value: 48%). The arrangement: scale not given: the % may be the effect or the level left. On the technique in general: In flow cytometry, cells or beads pass a laser one at a time.
Data set [3] concerns SUD4. Briefly: Decrease in number of living cells in human SUDHL4 cells at […] incubated for 48 hrs by EdU flow cytometry assay (reference value: 48%). The arrangement: scale not given: the % may be the effect or the level left. To be noted: dose 2.5 µM.
The subject of data set [4] is Farage. The data set can be described thus: cells. To be noted: Homo sapiens.
Description: Antiproliferative activity against BCL-6 dependent human Farage cells by CCK-8 assay
Data set [5] concerns SUD4. Briefly: Decrease in number of living cells in human SUDHL4 cells at 1.25 uM incubated for 48 hrs by EdU flow cytometry assay (reference value: 48%). The arrangement: scale not given: the % may be the effect or the level left.
The subject of data set [6] is SUD4. The data set can be described thus: Antitumor activity against ATR human SU-DHL-4 cells xenografted in mouse assessed as increased in mRNA expression at 5 mg/kg, administered daily for 3days by RT-PCR analysis. The data set is classed as functional. Background: Xenograft models place foreign cells or tissue in a host animal.
The nature of data set [7]: Intrinsic clearance in mouse microsomes. The data set is classed as ADME, Microsome.
Data set [8] is described as follows: Intrinsic clearance in mouse liver. Type of data set: ADME, tissue-based. To be noted: read-out: CLH.
In data set [9] the test system is SUD4. Briefly: cells. To be noted: Homo sapiens, SU-DHL-4.
Description: Antiproliferative activity against BCL-6 dependent human SU-DHL-4 cells by CCK-8 assay
Data set [10] can be described thus: Metabolic stability in human liver microsome assessed as half life. Type of data set: ADME. To be noted: liver microsomes. Background: Microsomes from liver hold many membrane-bound enzymes, among them those of drug oxidation.
Data set [11] concerns SUD4. The data set can be described thus: Antitumor activity against CD69 human SU-DHL-4 cells xenografted in mouse assessed as increase in mRNA expression at 5 mg/kg, administered daily for 3days by RT-PCR analysis. Type of data set: functional.
Data set [12] concerns SUD4. The data set can be described thus: Antitumor activity against human SU-DHL-4 cells xenografted in mouse assessed as reduction in tumor volume at 5 mg/kg, iv treated every other day for 3 days. The data set is classed as functional. The note with it: time 3 day. The arrangement: scale not given: the % may be the effect or the level left.
Data set [13] concerns DOHH-2. Briefly: cells. The note with it: Homo sapiens.
Description: Antiproliferative activity against BCL-6 dependent human DOHH-2 cells by CCK-8 assay
The test system of data set [14] is SUD4. The data set can be described thus: Antitumor activity against human SU-DHL-4 cells xenografted in mouse assessed as reduction in tumor weight at 5 mg/kg, iv treated every other day for 3 days. Type of data set: functional. The arrangement: scale not given: the % may be the effect or the level left. To be noted: time 3 day.
In data set [15] the test system is Toledo. The data set can be described thus: cells. The note with it: Homo sapiens.
Description: Antiproliferative activity against BCL-6 independent human Toledo cells by CCK-8 assay
Data set [16] concerns SUD4. The data set can be described thus: Antitumor activity against CXCR4 human SU-DHL-4 cells xenografted in mouse assessed as increase in mRNA expression at 5 mg/kg, administered daily for 3days by RT-PCR analysis. The data set is classed as functional.
Data set [17] concerns the target B-cell lymphoma 6 protein (Homo sapiens, UniProt P41182). Briefly: Inhibition of human BCL6 […] domain.
A short description of data set [18]: Plasma clearance in Balb/C mouse at 1 mg/kg, po or 5 mg/kg, iv. Type of data set: ADME, organism-based. To be noted: in vivo.
Data set [19] is described as follows: Oral bioavailability in SCID mouse plasma at 100 mg/kg. The data set is classed as ADME, organism-based.
A short description of data set [20]: Oral bioavailability in SCID mouse plasma at 10 mg/kg. The data set is classed as ADME, organism-based. The arrangement: dose 10 mg/kg, route po.
Data set [21] in a line: Aqueous solubility of the compound. The data set is classed as physicochemical. To be noted: buffer.
Data set [22] concerns the target BCL-6/NCOR2 (Homo sapiens, UniProt P41182). The data set can be described thus: Inhibition of BCL6/SMRT protein protein interaction (unknown origin) by TR-FRET assay.

Turning to `COc1cc(Nc2nc(N3C[C@@H](C)N[C@@H](C)C3)ncc2F)ccc1NC(=O)c1ccc(C2=CCCC2)s1`, the IC50 in data set [1] worked out at 1000 nM; in data set [4], 1000 nM; in data set [9], 1000 nM; in [13], 1000 nM; in data set [15], 3.3 µM. Moreover, the Activity in [2] is 27%; in [3], 6.6%; in data set [5], 13%; in data set [6], above 200%; in data set [11], above 150%; in data set [12], 60%. The values for the Activity in data set [14] and in data set [16] were 70% and above 60%, respectively. Further, the intrinsic clearance (microsomal CLint) in [7] was below 9.6 µL/min/mg. Moreover, the CLint scaled in [8] is below 38 mL/min/kg. For the same molecule, the half-life in data set [10] is above 60 min.
As to `CNC(=O)COc1cc2cc(Nc3nc(N4CCC(C(=O)N(C)C)CC4)ncc3Cl)cc(OC)c2n(C)c1=O`, in [17], the IC50 is at most 3 nM.
`C[C@@H]1CN(c2ncc(Cl)c(Nc3ccc4c(c3)n(CCC(C)(C)O)c(=O)n4C)n2)C[C@H](C)C1(F)F` gave a clearance in data set [18] of 20 mL/min/kg.
In data set [17], `CNC(=O)COc1cc2cc(Nc3nc(N4C[C@H](C)C[C@H](C)C4)ncc3Cl)ccc2n(C)c1=O` had a 50% inhibitory concentration (IC50) of at most 3 nM. Also, the peak level in data set [19] (Cmax) was 599 nM. Moreover, in data set [20], the AUC came to 1.86 µM·h and the Cmax stood at 193 nM.
`N#Cc1c(NCc2ccccc2)ccnc1Cl` yielded a solubility in [21] of 60 µM (≈ 14.6 µg/mL).
`N#Cc1c(NCC2CC2)ccnc1Cl`: the solubility in data set [21] was found to be 300 µM (≈ 62.3 µg/mL).
Same read-out and setting: as for `Cn1c(=O)n(C)c2cc(Nc3cc(SCc4ccccc4)ncn3)ccc21`, the figure is below 30 µM; as for `Cn1c(=O)n(C)c2cc(Nc3ncccc3C#N)ccc21`, 300 µM (≈ 83.8 µg/mL).
The molecule `COc1ccc(Nc2nc(NCC(C)C)ncc2F)cc1Cl` had an IC50 in data set [22] of 19 µM.
